Assay results taken from patent US9695155B2, “Herbicidal substituted pyrimidinyloxy benzene compounds” (E. I. DU PONT DE NEMOURS AND COMPANY, priority 2013, dated 2017).

Tests used:
Experiment in all cases: Test E preemergence
palmer pigweed = format: in vivo, Amaranthus palmeri; details: for Pigweed, Palmer plant response rating: scale 0 to 100 (0 no effect, 100 complete control); for Plant response rating, Pigweed, Palmer: scale 0 to 100, 0 no effect, 100 complete control
Excerpt: Seeds of plant species selected from corn (Zea mays), soybean (Glycine max), velvetleaf (Abutilon theophrasti), lambsquarters (Chenopodium album), wild poinsettia (Euphorbia heterophylla), palmer pigweed (Amaranthus palmeri), waterhemp (common waterhemp, Amaranthus rudis), surinam grass (Brachiaria decumbens), large (Lg) crabgrass (Digitaria sanguinalis), Brazilian crabgrass (Digitaria horizontalis), fall panicum (Panicum dichotomiflorum), giant foxtail (Setaria faberii), green foxtail (Setaria viridis), goosegrass (Eleusine indica), johnsongrass (Sorghum halepense), ragweed (common ragweed, Ambrosia elatior), barnyardgrass (Echinochloa crus-galli), sandbur (southern sandbur, Cenchrus echinatus), arrowleaf sida (Sida rhombifolia), Italian ryegrass (Lolium multiflorum), dayflower (Virginia (VA) dayflower, Commelina virginica), field bindweed (Convolvulus arvensis), morningglory (Ipomoea coccinea), nightshade (eastern black nightshade, Solanum ptycanthum), kochia (Kochia scoparia), yellow nutsedge (Cyperus esculentus), cocklebur (common cocklebur, Xanthium strumarium), smartweed (ladysthumb smartweed, and hairy beggarticks (Bidens pilosa), were planted into a silt loam soil and treated preemergence with test chemicals formulated in a non-phytotoxic solvent mixture which included a surfactant.
At the same time, plants from these crop and weed species and also horseweed (Canada horseweed, Conyza canadensis), waterhemp_RES1, (ALS & Triazine resistant common waterhemp, Amaranthus rudis), and waterhemp_RES2, (ALS & HPPD resistant common waterhemp, Amaranthus rudis) were planted in pots containing Redi-Earth® planting medium (Scotts Company, 14111 Scottslawn Road, Marysville, Ohio 43041) comprising spaghnum peat moss, vermiculite, wetting agent and starter nutrients were treated with postemergence applications of test chemicals formulated in the same manner. Plants ranged in height from 2 to 18 cm for postemergence treatments (1- to 4-leaf stage). Treated plants and controls were maintained in a greenhouse for 14 to 21 days, after which time all species were compared to controls and visually evaluated. Plant response ratings, summarized in Table E, are based on a scale of 0 to 100 where 0 is no effect and 100 is complete control. A dash (-) response means no test result.

wild poinsettia = format: in vivo, Euphorbia heterophylla; details: for Poinsettia, Wild plant response rating: scale 0 to 100 (0 no effect, 100 complete control); for Plant response rating, Poinsettia, Wild: scale 0 to 100, 0 no effect, 100 complete control
Method in brief: (§1)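 Compound in a non-phytotoxic solvent mixture with surfactant was applied preemergence to seeds in silt loam soil, or postemergence to plants 2 to 18 cm tall grown in peat-based potting medium. Plants were kept in a greenhouse for 14 to 21 days, then rated visually against untreated controls on a 0 (no effect) to 100 (complete control) scale.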

kochia = format: in vivo, Kochia scoparia; details: for Kochia plant response rating: scale 0 to 100 (0 no effect, 100 complete control); for Plant response rating, Kochia: scale 0 to 100, 0 no effect, 100 complete control
Method in brief: as §1

fall panicum = format: in vivo, Panicum dichotomiflorum; details: for Panicum, Fall plant response rating: scale 0 to 100 (0 no effect, 100 complete control); for Plant response rating, Panicum, Fall: scale 0 to 100, 0 no effect, 100 complete control
Method in brief: as §1

nightshade = format: in vivo, Solanum ptycanthum; details: for Nightshade plant response rating: scale 0 to 100 (0 no effect, 100 complete control); for Plant response rating, Nightshade: scale 0 to 100, 0 no effect, 100 complete control
Method in brief: as §1

surinam grass = format: in vivo, Brachiaria decumbens; details: for Surinam Grass plant response rating: scale 0 to 100 (0 no effect, 100 complete control); for Plant response rating, Surinam Grass: scale 0 to 100, 0 no effect, 100 complete control
Method in brief: as §1

hairy beggarticks = format: in vivo, Bidens pilosa; details: for Beggarticks plant response rating: scale 0 to 100 (0 no effect, 100 complete control); for Plant response rating, Beggarticks: scale 0 to 100, 0 no effect, 100 complete control
Method in brief: as §1

ragweed = format: in vivo, Ambrosia elatior; details: for Ragweed plant response rating: scale 0 to 100 (0 no effect, 100 complete control); for Plant response rating, Ragweed: scale 0 to 100, 0 no effect, 100 complete control
Method in brief: as §1

sandbur = format: in vivo, Cenchrus echinatus; details: for Sandbur plant response rating: scale 0 to 100 (0 no effect, 100 complete control); for Plant response rating, Sandbur: scale 0 to 100, 0 no effect, 100 complete control
Method in brief: as §1

waterhemp = format: in vivo, Amaranthus rudis; details: for Waterhemp plant response rating: scale 0 to 100 (0 no effect, 100 complete control); for Plant response rating, Waterhemp: scale 0 to 100, 0 no effect, 100 complete control
Method in brief: as §1

Brazilian crabgrass = format: in vivo, Digitaria horizontalis; details: for Crabgrass, Brazil plant response rating: scale 0 to 100 (0 no effect, 100 complete control); for Plant response rating, Crabgrass, Brazil: scale 0 to 100, 0 no effect, 100 complete control
Method in brief: as §1

velvetleaf = format: in vivo, Abutilon theophrasti; details: for Velvetleaf plant response rating: scale 0 to 100 (0 no effect, 100 complete control); for Plant response rating, Velvetleaf: scale 0 to 100, 0 no effect, 100 complete control
Method in brief: as §1

green foxtail = format: in vivo, Setaria viridis; details: for Foxtail, Green plant response rating: scale 0 to 100 (0 no effect, 100 complete control); for Plant response rating, Foxtail, Green: scale 0 to 100, 0 no effect, 100 complete control
Method in brief: as §1

soybean = format: in vivo, Glycine max; details: for Soybean plant response rating: scale 0 to 100 (0 no effect, 100 complete control); for Plant response rating, Soybean: scale 0 to 100, 0 no effect, 100 complete control
Method in brief: as §1

N#Cc1cccc(Oc2ncc(F)cn2)c1-n1cc(Cl)cn1 [Compound 73]
80: Nightshade plant response rating (nightshade; 31 g ai/ha) | Plant response rating, Ragweed (ragweed; 250 g ai/ha) | Plant response rating, Foxtail, Green (green foxtail; 125 g ai/ha) | Plant response rating, Soybean (soybean; 250 g ai/ha)
98: Kochia plant response rating (kochia; 62 g ai/ha) | Plant response rating, Kochia (kochia; 125 g ai/ha) | Panicum, Fall plant response rating (fall panicum; 62 g ai/ha) | Plant response rating, Panicum, Fall (fall panicum; 125 g ai/ha) | Plant response rating, Nightshade (nightshade; 125 g ai/ha)
50: Plant response rating, Beggarticks (hairy beggarticks; preemergence, 125 g ai/ha)
0: Pigweed, Palmer plant response rating (palmer pigweed; 16 g ai/ha) | Poinsettia, Wild plant response rating (wild poinsettia; 16 g ai/ha) | Panicum, Fall plant response rating (fall panicum; 16 g ai/ha) | Surinam Grass plant response rating (surinam grass; 16 g ai/ha) | Surinam Grass plant response rating (surinam grass; 31 g ai/ha) | Ragweed plant response rating (ragweed; 16 g ai/ha) | Velvetleaf plant response rating (velvetleaf; 16 g ai/ha) | Foxtail, Green plant response rating (green foxtail; 16 g ai/ha)
35: Poinsettia, Wild plant response rating (wild poinsettia; 62 g ai/ha) | Plant response rating, Surinam Grass (surinam grass; 250 g ai/ha) | Plant response rating, Sandbur (sandbur; 250 g ai/ha)
85: Plant response rating, Poinsettia, Wild (wild poinsettia; 250 g ai/ha)
40: Panicum, Fall plant response rating (fall panicum; 31 g ai/ha)
100: Pigweed, Palmer plant response rating (palmer pigweed; 62 g ai/ha) | Plant response rating, Pigweed, Palmer (palmer pigweed; 125 g ai/ha) | Plant response rating, Pigweed, Palmer (palmer pigweed; 250 g ai/ha) | Plant response rating, Kochia (kochia; 250 g ai/ha) | Plant response rating, Panicum, Fall (fall panicum; 250 g ai/ha) | Plant response rating, Nightshade (nightshade; 250 g ai/ha) | Waterhemp plant response rating (waterhemp; 31 g ai/ha) | Waterhemp plant response rating (waterhemp; 62 g ai/ha) | Plant response rating, Waterhemp (waterhemp; 125 g ai/ha) | Plant response rating, Waterhemp (waterhemp; 250 g ai/ha) | Crabgrass, Brazil plant response rating (Brazilian crabgrass; 62 g ai/ha) | Plant response rating, Crabgrass, Brazil (Brazilian crabgrass; 125 g ai/ha) | Plant response rating, Crabgrass, Brazil (Brazilian crabgrass; 250 g ai/ha)
65: Plant response rating, Poinsettia, Wild (wild poinsettia; 125 g ai/ha) | Nightshade plant response rating (nightshade; 16 g ai/ha) | Waterhemp plant response rating (waterhemp; 16 g ai/ha)
90: Nightshade plant response rating (nightshade; 62 g ai/ha)
25: Crabgrass, Brazil plant response rating (Brazilian crabgrass; 16 g ai/ha) | Soybean plant response rating (soybean; 31 g ai/ha) | Soybean plant response rating (soybean; 62 g ai/ha)
60: Plant response rating, Ragweed (ragweed; 125 g ai/ha) | Velvetleaf plant response rating (velvetleaf; 62 g ai/ha)
30: Poinsettia, Wild plant response rating (wild poinsettia; 31 g ai/ha) | Ragweed plant response rating (ragweed; 62 g ai/ha) | Plant response rating, Sandbur (sandbur; 125 g ai/ha)
15: Soybean plant response rating (soybean; 16 g ai/ha)
95: Crabgrass, Brazil plant response rating (Brazilian crabgrass; 31 g ai/ha) | Plant response rating, Velvetleaf (velvetleaf; 250 g ai/ha) | Plant response rating, Foxtail, Green (green foxtail; 250 g ai/ha)
5: Kochia plant response rating (kochia; 16 g ai/ha) | Surinam Grass plant response rating (surinam grass; 62 g ai/ha) | Beggarticks plant response rating (hairy beggarticks; 16 g ai/ha, preemergence) | Beggarticks plant response rating (hairy beggarticks; 31 g ai/ha, preemergence) | Ragweed plant response rating (ragweed; 31 g ai/ha)
10: Sandbur plant response rating (sandbur; 16 g ai/ha)
75: Pigweed, Palmer plant response rating (palmer pigweed; 31 g ai/ha) | Kochia plant response rating (kochia; 31 g ai/ha) | Plant response rating, Beggarticks (hairy beggarticks; preemergence, 250 g ai/ha)
70: Plant response rating, Velvetleaf (velvetleaf; 125 g ai/ha) | Foxtail, Green plant response rating (green foxtail; 62 g ai/ha) | Plant response rating, Soybean (soybean; 125 g ai/ha)
20: Plant response rating, Surinam Grass (surinam grass; 125 g ai/ha) | Plant response rating, Beggarticks (hairy beggarticks; Preemergence, 62 g ai/ha) | Sandbur plant response rating (sandbur; 31 g ai/ha) | Sandbur plant response rating (sandbur; 62 g ai/ha) | Velvetleaf plant response rating (velvetleaf; 31 g ai/ha) | Foxtail, Green plant response rating (green foxtail; 31 g ai/ha)
